# Tests used:
# PZT-induced seizures = test: PZT-induced seizures; assay type: in vivo, rats; settings: for Duration of Seizure / Minutes to Seizure Onset: mean
# Procedure: The pharmacodynamic effects of a pulmonary versus oral benzodiazepine-type drug, alprazolam, were evaluated using a standard pre-clinical test of anxiolytic drug action. In this test, the chemical convulsant pentylenetetrazol (PZT), which is known to produce well characterized seizures in rodents, was administered to rats. The test was selected based on its sensitivity to a wide range of benzodiazapines and to the fact that the relative potency of benzodiazapines in blocking PZT-induced seizures is believed to be similar to the magnitude of their anti-anxiety effects in humans. The ability of alprazolam to block PZT-induced seizures was used as a measure of the pharmacodynamic effects of alprazolm.
# Determinations of the […] activity of alprazolam were made following oral gavage, or insufflation directly into the lungs of rats. Alprazolam (Sigma, St. Louis, Mo. was administered via aerodynamically light particles which included 10% alprazolam, 20% sodium citrate, 10% calcium chloride and 60% DPPC. For oral delivery, alprazolam was suspended in light corn syrup and administered via gavage. For pulmonary delivery, an insufflation technique was used. Animals were briefly anesthetized with isoflurane (1-2%) and a laryngoscope was used to visualize the epiglottis and the blunt-tip insufflation device (PennCentury Insufflation powder delivery device) was inserted into the airway. A bolus of air (3 cc), from an attached syringe, was used to deliver the pre-loaded powder from the chamber of the device into the animals' lungs. The doses for pulmonary delivery were 0 (blank particles that included 20% sodium citrate, 10% calcium chloride and 70% DPPC), 0.088, 0.175, or 0.35 mgs total alprazolam, and the doses for oral delivery were 0, 0.088, 0.175, 0.35, 0.70, 1.75, or 3.50 mgs total alprazolam. These doses were chosen to encompass the range of effective and ineffective oral doses. Accordingly, any potential benefits of pulmonary delivery could be directly compared to the oral dose response curve for alprazolam.
# For both oral and pulmonary delivery, alprazolam was administered either 10 or 30 minutes prior to PZT, obtained from Sigma, St. Louis, Mo., (60 mg/kg given i.p). To control for potential interactions between alprazolam and isoflurane, all animals receiving oral alprazolam also received isoflurane immediately following dosing as described above. For all animals, the number of seizures as well as the time to seizure onset and seizure duration was recorded for 45 minutes after administration of PZT.
# [1] = 14C levels in plasma, brain and peripheral organs after 14C-carboplatin IV or pulmonary administration; assay type: in vivo, rat; settings: 10 minutes; for Plasma Levels of 14C: 100 μCi/8 mg
# Procedure: Blood, brain and peripheral organ levels of ^14C were determined following administration of ^14C-Carboplatin via either IV or pulmonary administration. A total of 100 μCi of radiolabeled carboplatin was mixed with unlabelled carboplatin to provide a total drug concentration of 8 mg/rat. All animals were anesthetized using ketamine. For IV administration, carboplatin was administered via a previously placed femoral cannula. For pulmonary administration, a 24 gauge catheter was placed within the trachea and the carboplatin was administered using a Harvard ventilator over a 3-5 second period using a tidal volume of 1 ml and 100 strokes/minutes. Blood samples were taken at 10 minutes post drug administration (N=6 per time point for each group). Brains were removed and dissected into various regions including the olfactory, frontal, and occipital cortices, the hippocampus, striatum, and cerebellum. Peripheral organs included the kidneys, spleen, heart, testes, and muscle. All samples were then processed for determinations of ^14C levels using scintillation.
# Absolute plasma levels of ^14C were higher following IV administration. […] This point is clearer when the ratio of brain to blood ^14C levels was calculated. […] Absolute levels of ^14C in peripheral tissue was also lower following pulmonary administration (92% lower relative to IV). In contrast to the large differences in selectivity seen in the brain, the relative peripheral selectivity (derived from dividing the levels of radioactivity in peripheral organs by that in the blood) was only 47% higher in the pulmonary group.
# [2] = oral, 10 minutes prior to PZT, 0.35 mgs
# [3] = oral, 10 minutes prior to PZT, 0.70 mgs
# [4] = oral, 10 minutes prior to PZT, 1.75 mgs
# [5] = oral, 10 minutes prior to PZT, 3.50 mgs
# [6] = oral, 30 minutes prior to PZT, 0.088 mgs
# [7] = oral, 30 minutes prior to PZT, 0.175 mgs
# [8] = oral, 30 minutes prior to PZT, 0.35 mgs
# [9] = pulmonary, 10 minutes prior to PZT, 0.088 mgs
# [10] = pulmonary, 10 minutes prior to PZT, 0.175 mgs
# [11] = pulmonary, 10 minutes prior to PZT, 0.35 mgs
# [12] = pulmonary, 10 minutes prior to PZT, 0.35 mgs, listed as alprazolam
# [13] = pulmonary, 30 minutes prior to PZT, 0.088 mgs
# [14] = pulmonary, 30 minutes prior to PZT, 0.175 mgs
# [15] = pulmonary, 30 minutes prior to PZT, 0.35 mgs
structure (smiles),measurement,setting,value
"Cc1nnc2n1-c1ccc(Cl)cc1C(c1ccccc1)=NC2 [Alprazolam, alprazolam]",pulmonary dose lower than maximally effective oral dose for comparable decrease in seizure duration,"PZT-induced seizures; 10 minutes prior to PZT, 0.088 vs 3.50 mgs",~40 fold
same,oral dose relative to pulmonary dose for comparable time to seizure onset,"PZT-induced seizures; 10 minutes prior to PZT, 0.35 vs 3.50 mgs",10 times
same,oral dose required relative to pulmonary dose for comparable seizure suppression,"PZT-induced seizures; 10 minutes prior to PZT, 3.50 vs 0.35 mgs",approximately 10 times
same,lowest oral dose that significantly increases time to seizure onset,"PZT-induced seizures; oral, 10 minutes prior to PZT",1.75 mgs
same,maximally effective oral dose on seizure duration,"PZT-induced seizures; oral, 10 minutes prior to PZT",3.50 mgs
same,Animals With Seizures,PZT-induced seizures; [2],13/15
same,Animals With Seizures (%),PZT-induced seizures; [2],(87%)
same,Duration of Seizure,PZT-induced seizures; [2],88.0 s
same,Minutes to Seizure Onset,PZT-induced seizures; [2],11.49 min
same,Animals With Seizures,PZT-induced seizures; [3],13/15
same,Animals With Seizures (%),PZT-induced seizures; [3],(87%)
same,Duration of Seizure,PZT-induced seizures; [3],62.07 s
same,Minutes to Seizure Onset,PZT-induced seizures; [3],9.24 min
same,Animals With Seizures,PZT-induced seizures; [4],7/15
same,Animals With Seizures (%),PZT-induced seizures; [4],(47%)
same,Duration of Seizure,PZT-induced seizures; [4],14.47 s
same,Minutes to Seizure Onset,PZT-induced seizures; [4],29.03 min
same,Animals With Seizures,PZT-induced seizures; [5],2/14
same,Animals With Seizures (%),PZT-induced seizures; [5],(14%)
same,Duration of Seizure,PZT-induced seizures; [5],5.40 s
same,Minutes to Seizure Onset,PZT-induced seizures; [5],43.37 min
same,Animals With Seizures,PZT-induced seizures; [6],11/15
same,Animals With Seizures (%),PZT-induced seizures; [6],(73%)
same,Duration of Seizure,PZT-induced seizures; [6],46.0 s
same,Minutes to Seizure Onset,PZT-induced seizures; [6],18.38 min
same,Animals With Seizures,PZT-induced seizures; [7],7/15
same,Animals With Seizures (%),PZT-induced seizures; [7],(47%)
same,Duration of Seizure,PZT-induced seizures; [7],15.0 s
same,Minutes to Seizure Onset,PZT-induced seizures; [7],33.10 min
same,Animals With Seizures,PZT-induced seizures; [8],4/15
same,Animals With Seizures (%),PZT-induced seizures; [8],(27%)
same,Animals With Seizures (%),"PZT-induced seizures; oral, 30 minutes prior to PZT, 0.35 mgs, listed as alprazolam",27%
same,Duration of Seizure,PZT-induced seizures; [8],19.0 s
same,Minutes to Seizure Onset,PZT-induced seizures; [8],37.58 min
same,Animals With Seizures,PZT-induced seizures; [9],5/15
same,Animals With Seizures (%),PZT-induced seizures; [9],(33%)
same,Animals With Seizures (%),"PZT-induced seizures; pulmonary, 10 minutes prior to PZT, 0.088 mgs, listed as alprazolam",33%
same,Duration of Seizure,PZT-induced seizures; [9],7.0 s
same,Minutes to Seizure Onset,PZT-induced seizures; [9],36.71 min
same,Animals With Seizures,PZT-induced seizures; [10],3/15
same,Animals With Seizures (%),PZT-induced seizures; [10],(20%)
same,Duration of Seizure,PZT-induced seizures; [10],8.0 s
same,Minutes to Seizure Onset,PZT-induced seizures; [10],38.61 min
same,Animals With Seizures,PZT-induced seizures; [11],2/15
same,Animals With Seizures (%),PZT-induced seizures; [11],(13%)
same,Animals With Seizures (%),PZT-induced seizures; [12],13%
same,Duration of Seizure,PZT-induced seizures; [11],4.0 s
same,Minutes to Seizure Onset,PZT-induced seizures; [11],42.28 min
same,Minutes to Seizure Onset,PZT-induced seizures; [12],> 42 min
same,Animals With Seizures,PZT-induced seizures; [13],9/15
same,Animals With Seizures (%),PZT-induced seizures; [13],(60%)
same,Duration of Seizure,PZT-induced seizures; [13],82.67 s
same,Minutes to Seizure Onset,PZT-induced seizures; [13],18.47 min
same,Animals With Seizures,PZT-induced seizures; [14],5/15
same,Animals With Seizures (%),PZT-induced seizures; [14],(33%)
same,Duration of Seizure,PZT-induced seizures; [14],16.07 s
same,Minutes to Seizure Onset,PZT-induced seizures; [14],34.05 min
same,Animals With Seizures,PZT-induced seizures; [15],2/15
same,Animals With Seizures (%),PZT-induced seizures; [15],(13%)
same,Duration of Seizure,PZT-induced seizures; [15],2.69 s
same,Minutes to Seizure Onset,PZT-induced seizures; [15],41.98 min
N.N.O=C([O-])C1(C(=O)[O-])CCC1.[Pt+2] [carboplatin],Absolute Brain Levels,[1]; IV,29.47 nCi/gram
same,"Absolute Tissue Levels (Peripheral Organs), excludes kidney",[1]; IV,0.03
same,Relative Brain Selectivity (Brain/Blood),[1]; IV,0.03
same,"Relative Peripheral Selectivity (Peripheral/Blood), excludes kidney",[1]; IV,0.44
same,Plasma Levels of 14C,[1]; IV,994.348
same,Absolute Tissue Levels (Peripheral Organs) (% Difference),[1]; Lung vs IV,+2833%
same,Plasma Levels (% Difference),[1]; Lung vs IV,−89.72%
same,Absolute Brain Levels,[1]; Lung,27.29 nCi/gram
same,"Absolute Tissue Levels (Peripheral Organs), excludes kidney",[1]; Lung,0.88
same,Relative Brain Selectivity (Brain/Blood),[1]; Lung,0.88
same,"Relative Peripheral Selectivity (Peripheral/Blood), excludes kidney",[1]; Lung,0.65
same,Plasma Levels of 14C,[1]; Lung,102.215
same,"Absolute levels of 14C in peripheral tissue, lower relative to IV",[1]; pulmonary vs IV,92%
